Laboratory results as given in ChEMBL document CHEMBL1201862, “PubChem BioAssay data set” (2004).
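How tested: cells in 96-well plates exposed to compound for 48 hours at five concentrations. GI50 is the concentration that inhibits growth by half.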 Active and inactive are the calls of the source. Rule as the data show it: active = GI50 up to about 1.1 µM and inactive = higher.

How the values were obtained:
Experiment in all cases: inhibition of tumour cell growth, NCI panel, 48 h
LOX IMVI = system: LOX IMVI
HOP-62 = system: HOP-62
SF-539 = system: SF-539
CAKI-1 = system: CAKI-1
A549 = system: A549
COLO 205 = system: COLO 205
HOP-92 = system: HOP-92
SW-620 = system: SW-620
HCT-15 = system: HCT-15
NCI-H460 = system: NCI-H460
NCI-H522 = system: NCI-H522
SF-268 = system: SF-268
K562 = system: K562
HL-60 = system: HL-60
MDA-N = system: MDA-N
HCC 2998 = system: HCC 2998
NCI-H23 = system: NCI-H23
IGROV-1 = system: IGROV-1
HCT-116 = system: HCT-116
M14 = system: M14
MCF7 = system: MCF7
SK-MEL-2 = system: SK-MEL-2
UO-31 = system: UO-31
786-0 = system: 786-0
Hs-578T = system: Hs-578T
EKVX = system: EKVX
U-251 = system: U-251
OVCAR-3 = system: OVCAR-3
MDA-MB-231 = system: MDA-MB-231
T47D = system: T47D
OVCAR-5 = system: OVCAR-5
SNB-19 = system: SNB-19
DU-145 = system: DU-145
SN12C = system: SN12C
UACC-257 = system: UACC-257
SK-OV-3 = system: SK-OV-3
Malme-3M = system: Malme-3M
TK-10 = system: TK-10
MDA-MB-435 = system: MDA-MB-435
RPMI-8226 = system: RPMI-8226
BT-549 = system: BT-549
SF-295 = system: SF-295
SNB-75 = system: SNB-75
NCI-H226 = system: NCI-H226
KM12 = system: KM12
ACHN = system: ACHN
CCRF-CEM = system: CCRF-CEM
MOLT-4 = system: MOLT-4
RXF 393 = system: RXF 393
SK-MEL-5 = system: SK-MEL-5
OVCAR-8 = system: OVCAR-8
SR = system: SR
UACC-62 = system: UACC-62
PC-3 = system: PC-3
NCI/ADR-RES = system: NCI/ADR-RES
SK-MEL-28 = system: SK-MEL-28
OVCAR-4 = system: OVCAR-4
HT-29 = system: HT-29

For `N#CC(NC12CC3CC(CC(C3)C1)C2)c1ccc2c(c1)OCO2` (configuration not stated), the GI50 (LOX IMVI) was > 100 µM (inactive), the GI50 (HOP-62) was > 100 µM (inactive) and the GI50 (SF-539) was > 100 µM (inactive). For the same compound, the GI50 (CAKI-1) was > 100 µM (inactive), the GI50 (A549) was > 100 µM (inactive) and the GI50 (COLO 205) was > 100 µM (inactive). The GI50 (HOP-92) was 89.1 µM (inactive), the GI50 (SW-620) was > 100 µM (inactive) and the GI50 (HCT-15) was greater than 100 µM. For the same compound, the GI50 (NCI-H460) was > 100 µM (inactive), the GI50 (NCI-H522) was > 100 µM (inactive) and the GI50 (SF-268) was > 100 µM (inactive). The GI50 (K562) was > 100 µM (inactive), the GI50 (HL-60) was > 100 µM (inactive) and the GI50 (MDA-N) was > 100 µM (inactive). For the same compound, the GI50 (HCC 2998) was > 100 µM (inactive), the GI50 (NCI-H23) was > 100 µM (inactive) and the GI50 (IGROV-1) was > 100 µM (inactive). The GI50 (HCT-116) was > 100 µM (inactive), the GI50 (M14) was > 100 µM (inactive) and the GI50 (MCF7) was > 100 µM (inactive). The GI50 (SK-MEL-2) was > 100 µM (inactive), the GI50 (UO-31) was > 100 µM (inactive) and the GI50 (786-0) was > 100 µM (inactive). The GI50 (Hs-578T) was > 100 µM (inactive), the GI50 (EKVX) was > 100 µM (inactive) and the GI50 (U-251) was > 100 µM (inactive). The GI50 (OVCAR-3) was > 100 µM (inactive), the GI50 (MDA-MB-231) was > 100 µM (inactive) and the GI50 (T47D) was > 100 µM (inactive). For the same compound, the GI50 (OVCAR-5) was > 100 µM (inactive), the GI50 (SNB-19) was > 100 µM (inactive) and the GI50 (DU-145) was > 100 µM (inactive). The GI50 (SN12C) was > 100 µM (inactive), the GI50 (UACC-257) was > 100 µM (inactive) and the GI50 (SK-OV-3) was > 100 µM (inactive). The GI50 (Malme-3M) was > 100 µM (inactive), the GI50 (TK-10) was > 100 µM (inactive) and the GI50 (MDA-MB-435) was > 100 µM (inactive). The GI50 (RPMI-8226) was > 100 µM (inactive), the GI50 (BT-549) was > 100 µM (inactive) and the GI50 (SF-295) was > 100 µM (inactive). For the same compound, the GI50 (SNB-75) was > 100 µM (inactive), the GI50 (NCI-H226) was > 100 µM (inactive) and the GI50 (KM12) was > 100 µM (inactive). For the same compound, the GI50 (ACHN) was > 100 µM (inactive), the GI50 (CCRF-CEM) was > 100 µM (inactive) and the GI50 (MOLT-4) was > 100 µM (inactive). For the same compound, the GI50 (RXF 393) was > 100 µM (inactive), the GI50 (SK-MEL-5) was > 100 µM (inactive) and the GI50 (OVCAR-8) was > 100 µM (inactive). The GI50 (SR) was > 100 µM (inactive), the GI50 (UACC-62) was > 100 µM (inactive) and the GI50 (PC-3) was > 100 µM (inactive). For the same compound, the GI50 (NCI/ADR-RES) was > 100 µM (inactive), the GI50 (SK-MEL-28) was > 100 µM (inactive) and the GI50 (OVCAR-4) was > 100 µM (inactive). For the same compound, the GI50 (HT-29) was > 100 µM (inactive).
In the case of `CCC(=O)NC(Nc1ccccc1F)(C(F)(F)F)C(F)(F)F`, the GI50 (LOX IMVI) is reported as > 100 µM (inactive), the GI50 (SF-539) is reported as > 100 µM (inactive) and the GI50 (CAKI-1) is reported as > 100 µM (inactive). The GI50 (A549) was > 100 µM (inactive), the GI50 (COLO 205) was > 100 µM (inactive) and the GI50 (HOP-92) was > 100 µM (inactive). The GI50 (SW-620) was > 100 µM (inactive), the GI50 (HCT-15) was greater than 100 µM and the GI50 (NCI-H460) was > 100 µM (inactive). The GI50 (NCI-H522) was > 100 µM (inactive), the GI50 (SF-268) was > 100 µM (inactive) and the GI50 (K562) was > 100 µM (inactive). For the same compound, the GI50 (HL-60) was > 100 µM (inactive), the GI50 (MDA-N) was > 100 µM (inactive) and the GI50 (HCC 2998) was > 100 µM (inactive). For the same compound, the GI50 (NCI-H23) was > 100 µM (inactive), the GI50 (IGROV-1) was > 100 µM (inactive) and the GI50 (HCT-116) was > 100 µM (inactive). For the same compound, the GI50 (M14) was > 100 µM (inactive), the GI50 (MCF7) was > 100 µM (inactive) and the GI50 (SK-MEL-2) was > 100 µM (inactive). For the same compound, the GI50 (UO-31) was > 100 µM (inactive), the GI50 (Hs-578T) was > 100 µM (inactive) and the GI50 (EKVX) was > 100 µM (inactive). For the same compound, the GI50 (U-251) was > 100 µM (inactive), the GI50 (OVCAR-3) was > 100 µM (inactive) and the GI50 (MDA-MB-231) was > 100 µM (inactive). The GI50 (T47D) was 40.9 µM (inactive), the GI50 (OVCAR-5) was > 100 µM (inactive) and the GI50 (SNB-19) was > 100 µM (inactive). For the same compound, the GI50 (DU-145) was > 100 µM (inactive), the GI50 (SN12C) was > 100 µM (inactive) and the GI50 (UACC-257) was > 100 µM (inactive). The GI50 (SK-OV-3) was > 100 µM (inactive), the GI50 (TK-10) was > 100 µM (inactive) and the GI50 (MDA-MB-435) was > 100 µM (inactive). For the same compound, the GI50 (RPMI-8226) was > 100 µM (inactive), the GI50 (BT-549) was > 100 µM (inactive) and the GI50 (SF-295) was > 100 µM (inactive). The GI50 (SNB-75) was > 100 µM (inactive), the GI50 (KM12) was > 100 µM (inactive) and the GI50 (ACHN) was > 100 µM (inactive). For the same compound, the GI50 (CCRF-CEM) was > 100 µM (inactive), the GI50 (MOLT-4) was > 100 µM (inactive) and the GI50 (RXF 393) was > 100 µM (inactive). For the same compound, the GI50 (SK-MEL-5) was > 100 µM (inactive), the GI50 (OVCAR-8) was > 100 µM (inactive) and the GI50 (SR) was > 100 µM (inactive). The GI50 (UACC-62) was 40.6 µM (inactive), the GI50 (PC-3) was > 100 µM (inactive) and the GI50 (NCI/ADR-RES) was > 100 µM (inactive). For the same compound, the GI50 (SK-MEL-28) was > 100 µM (inactive), the GI50 (OVCAR-4) was > 100 µM (inactive) and the GI50 (HT-29) was > 100 µM (inactive).
